In patent EP0059683A2, “7-Acylamido-3-cephem-4-carboxylic acids, process for their preparation, pharmaceutical compositions containing them and their use” (CIBA-GEIGY AG, priority 1981, dated 1982):
Values after ≈ are worked out from the molar mass of the structure shown.

Columns and labels:
[1] = tested on: Klebsiella pneumoniae 327; assay: Antibiotic activity in vitro, agar dilution method in DST agar (MIC); format: cell-based; settings: for MIC: Klebsiella pneumoniae, 327
Text: (§1) A. Die antibiotische Aktivität der Testverbindungen in vitro wurde durch die Agarverdünnungsmethode nach Ericsson, H.M., und Sherris, S.C., 1971, Acta Path. Microb. Scand. Section B, Suppl. No. 217, Bd. 1-90, in DST Agar ermittelt. Die gefundenen, das Wachstum der Testorganismen noch hemmenden Minimalkonzentrationen (MIC = minimum inhibiting concentrations) werden in Mikrogramm pro Milliliter […] für die geprüften Verbindungen in der Tabelle 1 angegeben.

[2] = tested on: Salmonella typhimurium 277; assay: as above; format: cell-based; settings: for MIC: Salmonella enterica, TYPHIMURIUM
Text: as §1

[3] = tested on: Pseudomonas aeruginosa 799/61; assay: as above; format: cell-based; settings: for MIC: Pseudomonas aeruginosa, 799/61
Text: as §1

Escherichia coli 205 [4] = assay: as above; format: cell-based; settings: for MIC: Escherichia coli, 205
Text: as §1

[5] = tested on: Staphylococcus anvens 10B; assay: Chemotherapeutic efficacy in vivo against systemic infection in mice (ED50); settings: female SPF MF2 mice; for ED50: Staphylococcus, 10B, sc
Text: (§2) B. Die chemotherapeutische Wirksamkeit in vivo gegen systemische Infektionen in weiblichen SPF, MF2 Mäusen wurde nach der Methode von Zak., 0., et al., 1979, Drugs Exptl. Clin. Res. 5, 45-59, ermittelt. Die gefundenen ED50-Werte in Milligramm Substanz pro Kilogramm Maus (mg/kg) für eine Anzahl von Mikroorganismen werden für die oral (p.o.) oder subcutan (s.c.) applizierten Testverbindungen in der Tabelle 2 angegeben.

Escherichia coli 205 [6] = assay: as above; settings: s.c., female SPF MF2 mice; for ED50: Escherichia coli, 205, sc
Text: as §2

Proteus morganii 2359 = assay: as above; settings: s.c., female SPF MF2 mice; for ED50: Morganella morganii, 2359, sc
Text: as §2

Structure (SMILES)	MIC Klebsiella pneumoniae 327 [1]	MIC Salmonella typhimurium 277 [2]	MIC Pseudomonas aeruginosa 799/61 [3]	MIC Escherichia coli 205 (Escherichia coli 205 [4])	ED50 Staphylococcus anvens 10B ([5]; s.c.) [mg/kg]	ED50 Escherichia coli 205 (Escherichia coli 205 [6]) [mg/kg]	ED50 Proteus morganii 2359 (Proteus morganii 2359) [mg/kg]	MIC [1] [µg/mL]	MIC [2] [µg/mL]	MIC [3] [µg/mL]	MIC (Escherichia coli 205 [4]) [µg/mL]	ED50 [5] [mg/kg]	ED50 (Escherichia coli 205 [6]) [mg/kg]	ED50 (Proteus morganii 2359) [mg/kg]
NC(=O)c1cc[n+](CC2=C(C(=O)[O-])N3C(=O)C(NC(=O)C(NC(=O)OC[C@@H](N)C(=O)O)c4csc(N)n4)C3SC2)cc1 (stereo partly drawn) [Testverbindung 26, 3-(4-Carbamoylpyridiniomethyl)-7β-[(2R,S)-2-((2R)-2-amino-2-car-boxyäthoxycarbonylamino)-2-(2-aminothiazol-4-yl)-acetamido]-3-cephem-4-carboxylat]	0,1 µg/ml	0,1 µg/ml	0,5 µg/ml	0,1 µg/ml	>30	1	70							
NC(=O)c1cc[n+](CC2=C(C(=O)[O-])N3C(=O)[C@@H](NC(=O)C(NC(=O)OC[C@@H](N)C(=O)O)c4csc(N)n4)[C@H]3SC2)cc1 (stereo partly drawn) [Testverbindung 26]								0.5 (≈ 0.806 µM)	0.2 (≈ 0.322 µM)	0.5 (≈ 0.806 µM)	0.2 (≈ 0.322 µM)	15	9	10
CO[C@@]1(NC(=O)CCCNC(=O)OC[C@@H](N)C(=O)O)C(=O)N2C(C(=O)O)=C(COC(C)=O)CS[C@@H]21 [Testverbindung 27]								1 (≈ 1.93 µM)	1 (≈ 1.93 µM)	0.5 (≈ 0.964 µM)	1 (≈ 1.93 µM)	> 30	14	8
CO[C@@]1(NC(=O)CCCNC(=O)OC[C@@H](N)C(=O)O)C(=O)N2C(C(=O)O)=C(CSc3nnnn3C)CS[C@@H]21 [Testverbindung 28]								0.5 (≈ 0.87 µM)	0.5 (≈ 0.87 µM)	0.2 (≈ 0.348 µM)	1 (≈ 1.74 µM)	> 30	4	5
CC(=O)OCC1=C(C(=O)O)N2C(=O)[C@@H](NC(=O)CCCNC(=O)OC[C@@H](N)C(=O)O)[C@H]2SC1 [Testverbindung 29]								4 (≈ 8.19 µM)	2 (≈ 4.09 µM)	1 (≈ 2.05 µM)	32 (≈ 65.5 µM)	> 30	7	75
Cn1nnnc1SCC1=C(C(=O)O)N2C(=O)[C@@H](NC(=O)CCCNC(=O)OC[C@@H](N)C(=O)O)[C@H]2SC1 [Testverbindung 30]								0.5 (≈ 0.918 µM)	0.5 (≈ 0.918 µM)	0.5 (≈ 0.918 µM)	2 (≈ 3.67 µM)	> 30	1.7	10
